System: 521955-158-R2-J5-PDC complex spheroids, viability
Assay: Anticancer human tumor 521955-158-R2-J5-PDC patient-derived pancreatic carcinoma cell line growth inhibition [RAS]
Settings: for IC50: curve of first compound; for viability, T/C: stronger effect = lower value; active = viability on the fitted dose curve at most 10% of control; inactive = the rest
Summary of the method: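 Tumour cells grown as complex spheroids with HUVEC endothelial cells and mesenchymal stem cells, treated with RAS pathway inhibitor combinations. Each agent spans half-log steps from near clinical Cmax, or 10 microM where Cmax is unknown.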

[1] = second compound 0.00316 µM, first compound 0.0316 µM
[2] = second compound 0.00316 µM, first compound 0.1 µM
[3] = second compound 0.00316 µM, first compound 0.316 µM
[4] = second compound 0.00316 µM, first compound 1 µM
[5] = second compound 0.01 µM, first compound 0.0316 µM
[6] = second compound 0.01 µM, first compound 0.1 µM
[7] = second compound 0.01 µM, first compound 0.316 µM
[8] = second compound 0.01 µM, first compound 1 µM
[9] = second compound 0.0316 µM, first compound 0.0316 µM
[10] = second compound 0.0316 µM, first compound 0.1 µM
[11] = second compound 0.0316 µM, first compound 0.316 µM
[12] = second compound 0.0316 µM, first compound 1 µM
[13] = second compound 0.1 µM, first compound 0.0316 µM
[14] = second compound 0.1 µM, first compound 0.1 µM
[15] = second compound 0.1 µM, first compound 0.316 µM
[16] = second compound 0.1 µM, first compound 1 µM
[17] = second compound 0.316 µM, first compound 0.0316 µM
[18] = second compound 0.316 µM, first compound 0.1 µM
[19] = second compound 0.316 µM, first compound 0.316 µM
[20] = second compound 0.316 µM, first compound 1 µM
[21] = second compound 1 µM, first compound 0.0316 µM
[22] = second compound 1 µM, first compound 0.1 µM
[23] = second compound 1 µM, first compound 0.316 µM
[24] = second compound 1 µM, first compound 1 µM
[25] = second compound 0.000949 µM, first compound 0.0316 µM
[26] = second compound 0.000949 µM, first compound 0.1 µM
[27] = second compound 0.000949 µM, first compound 0.316 µM
[28] = second compound 0.000949 µM, first compound 1 µM
[29] = second compound 0.000949 µM, first compound 3.16 µM
[30] = second compound 0.000949 µM, first compound 10 µM
[31] = second compound 0.003 µM, first compound 0.0316 µM
[32] = second compound 0.003 µM, first compound 0.1 µM
[33] = second compound 0.003 µM, first compound 0.316 µM
[34] = second compound 0.003 µM, first compound 1 µM
[35] = second compound 0.003 µM, first compound 3.16 µM
[36] = second compound 0.003 µM, first compound 10 µM
[37] = second compound 0.00949 µM, first compound 0.0316 µM
[38] = second compound 0.00949 µM, first compound 0.1 µM
[39] = second compound 0.00949 µM, first compound 0.316 µM
[40] = second compound 0.00949 µM, first compound 1 µM
[41] = second compound 0.00949 µM, first compound 3.16 µM
[42] = second compound 0.00949 µM, first compound 10 µM
[43] = second compound 0.03 µM, first compound 0.0316 µM
[44] = second compound 0.03 µM, first compound 0.1 µM
[45] = second compound 0.03 µM, first compound 0.316 µM
[46] = second compound 0.03 µM, first compound 1 µM
[47] = second compound 0.03 µM, first compound 3.16 µM
[48] = second compound 0.03 µM, first compound 10 µM
[49] = second compound 0.0949 µM, first compound 0.0316 µM
[50] = second compound 0.0949 µM, first compound 0.1 µM
[51] = second compound 0.0949 µM, first compound 0.316 µM
[52] = second compound 0.0949 µM, first compound 1 µM
[53] = second compound 0.0949 µM, first compound 3.16 µM
[54] = second compound 0.0949 µM, first compound 10 µM
[55] = second compound 0.3 µM, first compound 0.0316 µM
[56] = second compound 0.3 µM, first compound 0.1 µM
[57] = second compound 0.3 µM, first compound 0.316 µM
[58] = second compound 0.3 µM, first compound 1 µM
[59] = second compound 0.3 µM, first compound 3.16 µM
[60] = second compound 0.3 µM, first compound 10 µM
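Note: compound exposure lasted seven days before the viability read.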
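Throughout, for viability, T/C: spheroids also contain HUVEC endothelial cells and mesenchymal stem cells as stroma.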

CCC(CC)c1cc(NC2CCC(N)C2)n2nccc2n1 (stereo not drawn) + C=CC(=O)N1CCN(c2nc(OCC3CCCN3C)nc3c(F)c(-c4nc(N)cc(C)c4C(F)(F)F)c(Cl)cc23)C(C)C1
2.1 µM: IC50 (second compound 0.01 µM)
2.14 µM: IC50 (second compound 0.316 µM)
2.11 µM: IC50 (second compound 0.0316 µM)
2.01 µM: IC50 (second compound 1 µM)
active: viability, T/C (second compound 0.00316 µM, first compound 3.16 µM) 7.09% | viability, T/C (second compound 0.00316 µM, first compound 10 µM) 10.1% | viability, T/C (second compound 0.0316 µM, first compound 3.16 µM) 9.15% | viability, T/C (second compound 0.0316 µM, first compound 10 µM) 9.78% | viability, T/C (second compound 0.1 µM, first compound 10 µM) 9.75% | viability, T/C (second compound 0.316 µM, first compound 10 µM) 9.87%
1.95 µM: IC50 (second compound 0.00316 µM)
inactive: viability, T/C [1] 95.8% | viability, T/C [2] 118% | viability, T/C [3] 122% | viability, T/C [4] 107% | viability, T/C [5] 104% | viability, T/C [6] 127% | viability, T/C [7] 126% | viability, T/C [8] 128% | viability, T/C (second compound 0.01 µM, first compound 3.16 µM) 8.44% | viability, T/C (second compound 0.01 µM, first compound 10 µM) 12.1% | viability, T/C [9] 99.1% | viability, T/C [10] 127% | viability, T/C [11] 122% | viability, T/C [12] 152% | viability, T/C [13] 139% | viability, T/C [14] 106% | viability, T/C [15] 142% | viability, T/C [16] 120% | viability, T/C (second compound 0.1 µM, first compound 3.16 µM) 10.2% | viability, T/C [17] 145% | viability, T/C [18] 105% | viability, T/C [19] 119% | viability, T/C [20] 133% | viability, T/C (second compound 0.316 µM, first compound 3.16 µM) 11.5% | viability, T/C [21] 102% | viability, T/C [22] 107% | viability, T/C [23] 125% | viability, T/C [24] 110% | viability, T/C (second compound 1 µM, first compound 3.16 µM) 10.1% | viability, T/C (second compound 1 µM, first compound 10 µM) 13%
2.09 µM: IC50 (second compound 0.1 µM)

C[C@@H](NC(=O)c1ncnc(N)c1Cl)c1ncc(C(=O)Nc2cc(C(F)(F)F)c(Cl)cn2)s1 + CCn1c(-c2cc(N3CCN(C)CC3)cnc2C(C)OC)c2c3cc(ccc31)-c1csc(n1)CC(NC(=O)C1CC1C)C(=O)N1CCCC(N1)C(=O)OCC(C)(C)C2
inactive: viability, T/C [25] 49.2% | viability, T/C [26] 50.3% | viability, T/C [27] 50.4% | viability, T/C [28] 48.9% | viability, T/C [29] 51.3% | viability, T/C [30] 49% | viability, T/C [31] 39.9% | viability, T/C [32] 39.5% | viability, T/C [33] 45.2% | viability, T/C [34] 38.9% | viability, T/C [35] 47.9% | viability, T/C [36] 40.7% | viability, T/C [37] 39.9% | viability, T/C [38] 34.2% | viability, T/C [39] 40.8% | viability, T/C [40] 37% | viability, T/C [41] 36.4% | viability, T/C [42] 38.7% | viability, T/C [43] 26.9% | viability, T/C [44] 29.7% | viability, T/C [45] 31% | viability, T/C [46] 22.4% | viability, T/C [47] 29.2% | viability, T/C [48] 21.6% | viability, T/C [49] 11.8% | viability, T/C [50] 12.6% | viability, T/C [51] 18.7% | viability, T/C [52] 16.8% | viability, T/C [53] 17.8% | viability, T/C [54] 17.8% | viability, T/C [55] 11.7% | viability, T/C [56] 13.2% | viability, T/C [57] 13.5% | viability, T/C [58] 12.4% | viability, T/C [59] 15.2% | viability, T/C [60] 12.3%
< 0.0316 µM: IC50 (second compound 0.000949 µM) | IC50 (second compound 0.003 µM) | IC50 (second compound 0.00949 µM) | IC50 (second compound 0.03 µM) | IC50 (second compound 0.0949 µM) | IC50 (second compound 0.3 µM)

CC(C)NCC(C(=O)N1CCN(c2ncnc3c2C(C)CC3O)CC1)c1ccc(Cl)cc1 (stereo not drawn) + CCn1c(-c2cccnc2C(C)OC)c2c3cc(ccc31)N1CCOC(CC(NC(=O)C(C(C)C)N(C)C(=O)C3(F)CCN(C(=O)C#CC(C)(C)N(C)C)CC3)C(=O)N3CCCC(N3)C(=O)OCC(C)(C)C2)C1
8.61 µM: IC50 (second compound 0.3 µM)
> 10 µM: IC50 (second compound 0.000949 µM) | IC50 (second compound 0.003 µM) | IC50 (second compound 0.00949 µM) | IC50 (second compound 0.03 µM) | IC50 (second compound 0.0949 µM)
inactive: viability, T/C [25] 84.8% | viability, T/C [26] 85.3% | viability, T/C [27] 84.9% | viability, T/C [28] 62.7% | viability, T/C [29] 68% | viability, T/C [30] 72% | viability, T/C [31] 81.6% | viability, T/C [32] 92.5% | viability, T/C [33] 77.4% | viability, T/C [34] 56.1% | viability, T/C [35] 62.4% | viability, T/C [36] 79.1% | viability, T/C [37] 88.7% | viability, T/C [38] 91.7% | viability, T/C [39] 78.7% | viability, T/C [40] 53% | viability, T/C [41] 60.1% | viability, T/C [42] 68% | viability, T/C [43] 83.9% | viability, T/C [44] 100% | viability, T/C [45] 83% | viability, T/C [46] 57.5% | viability, T/C [47] 68.3% | viability, T/C [48] 56.8% | viability, T/C [49] 93.6% | viability, T/C [50] 92% | viability, T/C [51] 82.4% | viability, T/C [52] 64.3% | viability, T/C [53] 61.3% | viability, T/C [54] 59.9% | viability, T/C [55] 67.2% | viability, T/C [56] 76.6% | viability, T/C [57] 67.9% | viability, T/C [58] 57.2% | viability, T/C [59] 57.4% | viability, T/C [60] 49.6%

CCN1CCN(Cc2ccc(Nc3ncc(F)c(-c4cc(F)c5nc(C)n(C(C)C)c5c4)n3)nc2)CC1 + C=CC(=O)N1CCN(c2nc(OCC3CCCN3C)nc3c(F)c(-c4nc(N)cc(C)c4C(F)(F)F)c(Cl)cc23)C(C)C1
> 1 µM: IC50 (second compound 0.00316 µM) | IC50 (second compound 0.01 µM) | IC50 (second compound 0.0316 µM) | IC50 (second compound 0.1 µM) | IC50 (second compound 0.316 µM) | IC50 (second compound 1 µM)
inactive: viability, T/C (second compound 0.00316 µM, first compound 0.00316 µM) 121% | viability, T/C (second compound 0.00316 µM, first compound 0.01 µM) 89.3% | viability, T/C [1] 85.3% | viability, T/C [2] 85.2% | viability, T/C [3] 140% | viability, T/C [4] 102% | viability, T/C (second compound 0.01 µM, first compound 0.00316 µM) 87.2% | viability, T/C (second compound 0.01 µM, first compound 0.01 µM) 126% | viability, T/C [5] 76.5% | viability, T/C [6] 120% | viability, T/C [7] 104% | viability, T/C [8] 108% | viability, T/C (second compound 0.0316 µM, first compound 0.00316 µM) 101% | viability, T/C (second compound 0.0316 µM, first compound 0.01 µM) 148% | viability, T/C [9] 88.9% | viability, T/C [10] 110% | viability, T/C [11] 93.6% | viability, T/C [12] 98.4% | viability, T/C (second compound 0.1 µM, first compound 0.00316 µM) 147% | viability, T/C (second compound 0.1 µM, first compound 0.01 µM) 103% | viability, T/C [13] 115% | viability, T/C [14] 110% | viability, T/C [15] 108% | viability, T/C [16] 112% | viability, T/C (second compound 0.316 µM, first compound 0.00316 µM) 145% | viability, T/C (second compound 0.316 µM, first compound 0.01 µM) 109% | viability, T/C [17] 80.9% | viability, T/C [18] 96.4% | viability, T/C [19] 107% | viability, T/C [20] 97.6% | viability, T/C (second compound 1 µM, first compound 0.00316 µM) 120% | viability, T/C (second compound 1 µM, first compound 0.01 µM) 92% | viability, T/C [21] 81.8% | viability, T/C [22] 75.6% | viability, T/C [23] 93.5% | viability, T/C [24] 100%

From PubChem BioAssay AID2060900 (Molecular Pharmacology Branch, DTP, NCI, 2025)
